Test system: NCI-H719 tumor spheroids, viability
Experiment: Anticancer human tumor NCI-H719 cell line growth inhibition;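 note: spheroids exposed to compounds for seven days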;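 for viability, T/C: percent viability relative to DMSO vehicle control as 100%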
Settings: spheroids with HUVEC and MSC; for IC50: curve of first compound; for viability, T/C: stronger effect = lower value
In short: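 Single agents and combinations were tested on spheroids built from tumor cells plus HUVEC and hMSC, at half-log dilutions starting at or near clinical Cmax, else 10 microM; final DMSO 0.25% (v/v).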

[1] = second compound 30 pM, first compound 0.00949 µM
[2] = second compound 30 pM, first compound 0.03 µM
[3] = second compound 30 pM, first compound 0.0949 µM
[4] = second compound 30 pM, first compound 0.3 µM
[5] = second compound 30 pM, first compound 0.949 µM
[6] = second compound 30 pM, first compound 3 µM
[7] = second compound 94.9 pM, first compound 0.00949 µM
[8] = second compound 94.9 pM, first compound 0.03 µM
[9] = second compound 94.9 pM, first compound 0.0949 µM
[10] = second compound 94.9 pM, first compound 0.3 µM
[11] = second compound 94.9 pM, first compound 0.949 µM
[12] = second compound 94.9 pM, first compound 3 µM
[13] = second compound 0.0003 µM, first compound 0.00949 µM
[14] = second compound 0.0003 µM, first compound 0.03 µM
[15] = second compound 0.0003 µM, first compound 0.0949 µM
[16] = second compound 0.0003 µM, first compound 0.3 µM
[17] = second compound 0.0003 µM, first compound 0.949 µM
[18] = second compound 0.0003 µM, first compound 3 µM
[19] = second compound 0.000949 µM, first compound 0.00949 µM
[20] = second compound 0.000949 µM, first compound 0.03 µM
[21] = second compound 0.000949 µM, first compound 0.0949 µM
[22] = second compound 0.000949 µM, first compound 0.3 µM
[23] = second compound 0.000949 µM, first compound 0.949 µM
[24] = second compound 0.000949 µM, first compound 3 µM
[25] = second compound 0.003 µM, first compound 0.00949 µM
[26] = second compound 0.003 µM, first compound 0.03 µM
[27] = second compound 0.003 µM, first compound 0.0949 µM
[28] = second compound 0.003 µM, first compound 0.3 µM
[29] = second compound 0.003 µM, first compound 0.949 µM
[30] = second compound 0.003 µM, first compound 3 µM

O=C(c1cc(Cc2n[nH]c(=O)c3ccccc23)ccc1F)N1CCN(C(=O)C2CC2)CC1 + Cn1nnc2c(C(N)=O)ncn2c1=O
IC50 (second compound 1 µM): 1.72 µM
IC50 (second compound 3.16 µM): 1.36 µM
IC50 (second compound 10 µM): 1.95 µM
IC50 (second compound 31.6 µM): < 0.0949 µM
IC50 (second compound 100 µM): < 0.0949 µM
viability, T/C (second compound 1 µM, first compound 0.0949 µM): 73.7%
viability, T/C (second compound 1 µM, first compound 0.3 µM): 56%
viability, T/C (second compound 1 µM, first compound 0.949 µM): 56.1%
viability, T/C (second compound 1 µM, first compound 3 µM): 42.1%
viability, T/C (second compound 1 µM, first compound 9.49 µM): 7.25%
viability, T/C (second compound 1 µM, first compound 30 µM): 6.89%
viability, T/C (second compound 3.16 µM, first compound 0.0949 µM): 64.2%
viability, T/C (second compound 3.16 µM, first compound 0.3 µM): 60.5%
viability, T/C (second compound 3.16 µM, first compound 0.949 µM): 67%
viability, T/C (second compound 3.16 µM, first compound 3 µM): 19.5%
viability, T/C (second compound 3.16 µM, first compound 9.49 µM): 20.2%
viability, T/C (second compound 3.16 µM, first compound 30 µM): 7.9%
viability, T/C (second compound 10 µM, first compound 0.0949 µM): 55.8%
viability, T/C (second compound 10 µM, first compound 0.3 µM): 66.7%
viability, T/C (second compound 10 µM, first compound 0.949 µM): 56%
viability, T/C (second compound 10 µM, first compound 3 µM): 43.9%
viability, T/C (second compound 10 µM, first compound 9.49 µM): 29.8%
viability, T/C (second compound 10 µM, first compound 30 µM): 7.79%
viability, T/C (second compound 31.6 µM, first compound 0.0949 µM): 52.4%
viability, T/C (second compound 31.6 µM, first compound 0.3 µM): 53.3%
viability, T/C (second compound 31.6 µM, first compound 0.949 µM): 34.1%
viability, T/C (second compound 31.6 µM, first compound 3 µM): 40.7%
viability, T/C (second compound 31.6 µM, first compound 9.49 µM): 42.8%
viability, T/C (second compound 31.6 µM, first compound 30 µM): 6.8%
viability, T/C (second compound 100 µM, first compound 0.0949 µM): 43.5%
viability, T/C (second compound 100 µM, first compound 0.3 µM): 21.9%
viability, T/C (second compound 100 µM, first compound 0.949 µM): 29.4%
viability, T/C (second compound 100 µM, first compound 3 µM): 51.8%
viability, T/C (second compound 100 µM, first compound 9.49 µM): 7.29%
viability, T/C (second compound 100 µM, first compound 30 µM): 7.19%

Cc1sc2c(c1C)C(c1ccc(Cl)cc1)=NC(CC(=O)Nc1ccc(O)cc1)c1nnc(C)n1-2 (stereo not given) + COc1cc2c(cc1O)CCNC21CSC2c3c(OC(C)=O)c(C)c4c(c3C(COC1=O)N1C(O)C3Cc5cc(C)c(OC)c(O)c5C(C21)N3C)OCO4
IC50 (second compound 30 pM): 0.139 µM
IC50 (second compound 94.9 pM): < 0.00949 µM
IC50 (second compound 0.0003 µM): < 0.00949 µM
IC50 (second compound 0.000949 µM): < 0.00949 µM
IC50 (second compound 0.003 µM): < 0.00949 µM
viability, T/C [1]: 77.2%
viability, T/C [2]: 90.2%
viability, T/C [3]: 69.2%
viability, T/C [4]: 11.1%
viability, T/C [5]: 3.27%
viability, T/C [6]: 2.11%
viability, T/C [7]: 34.7%
viability, T/C [8]: 33.6%
viability, T/C [9]: 35%
viability, T/C [10]: 7.23%
viability, T/C [11]: 3.48%
viability, T/C [12]: 1.41%
viability, T/C [13]: 8.51%
viability, T/C [14]: 6.28%
viability, T/C [15]: 6.64%
viability, T/C [16]: 4.03%
viability, T/C [17]: 1.94%
viability, T/C [18]: 2.8%
viability, T/C [19]: 6.63%
viability, T/C [20]: 6.95%
viability, T/C [21]: 4.47%
viability, T/C [22]: 1.87%
viability, T/C [23]: 1.26%
viability, T/C [24]: 0.53%
viability, T/C [25]: 0.27%
viability, T/C [26]: 0.37%
viability, T/C [27]: 0.18%
viability, T/C [28]: 0.13%
viability, T/C [29]: 0.18%
viability, T/C [30]: 0.31%

CNCc1ccc(-c2cc(-c3nc(-c4ccc(S(=O)(=O)C(C)C)cc4)cnc3N)on2)cc1 + COc1cc2c(cc1O)CCNC21CSC2c3c(OC(C)=O)c(C)c4c(c3C(COC1=O)N1C(O)C3Cc5cc(C)c(OC)c(O)c5C(C21)N3C)OCO4
IC50 (second compound 30 pM): 0.0842 µM
IC50 (second compound 94.9 pM): < 0.00949 µM
IC50 (second compound 0.0003 µM): < 0.00949 µM
IC50 (second compound 0.000949 µM): < 0.00949 µM
IC50 (second compound 0.003 µM): < 0.00949 µM
viability, T/C [1]: 79.9%
viability, T/C [2]: 86.5%
viability, T/C [3]: 45%
viability, T/C [4]: 15.5%
viability, T/C [5]: 10.5%
viability, T/C [6]: 1.88%
viability, T/C [7]: 34.3%
viability, T/C [8]: 29.2%
viability, T/C [9]: 14.2%
viability, T/C [10]: 8.3%
viability, T/C [11]: 9.95%
viability, T/C [12]: 0.36%
viability, T/C [13]: 8.48%
viability, T/C [14]: 25.4%
viability, T/C [15]: 8.28%
viability, T/C [16]: 10.4%
viability, T/C [17]: 9.76%
viability, T/C [18]: 0.75%
viability, T/C [19]: 8.38%
viability, T/C [20]: 9.01%
viability, T/C [21]: 8.98%
viability, T/C [22]: 9.91%
viability, T/C [23]: 10.3%
viability, T/C [24]: 0.62%
viability, T/C [25]: 0.5%
viability, T/C [26]: 1.4%
viability, T/C [27]: 0.58%
viability, T/C [28]: 0.82%
viability, T/C [29]: 0.56%
viability, T/C [30]: 1.15%

Reference: PubChem BioAssay AID1845212 (Molecular Pharmacology Branch, DTP, NCI, 2023)
